Experimental data reported in patent publication US20250195463A1, “ORGANOMETALLIC COMPLEX, CONTROLLED-RELEASE MULTI-FUNCTIONAL DRUG, PHARMACEUTICAL COMPOSITION, PROCESSES FOR THE PREPARATION THEREOF AND THEIR USE” (FACULDADE DE CIÊNCIAS DA UNIVERSIDADE DE LISBOA, priority 2022, published 2025).

How the values were obtained:
[1] = Stability in aqueous medium (dimethyl sulfoxide/Dulbecco's Modified Eagle Medium) by UV-Vis spectroscopy; type: physicochemical; settings: 5% dimethyl sulfoxide/95% Dulbecco's Modified Eagle Medium; for Relative variation of the maximum absorbance of the π→π* transitions: band 292-296 nm (λmax in column head); for Relative variation of the maximum absorbance of the charge transfer bands: band 358-400 nm (λmax in column head)
In short: (§1)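 UV-Vis spectra (270-900 nm) were recorded at intervals from 0 to 24 h, at room temperature in the dark. Solvents were 100% DMSO, or 5% or 10% DMSO in DMEM depending on complex, at 7.0×10^-5 M to 3.0×10^-4 M.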

[2] = Stability in organic medium (dimethyl sulfoxide) by UV-Vis spectroscopy; type: physicochemical; settings: for Relative variation of the maximum absorbance of the π→π* transitions: band 289-300 nm (λmax in column head); for Relative variation of the maximum absorbance of the charge transfer bands: band 357-425 nm (λmax in column head)
In short: as §1

MDA-MB-231 (FGFR−) = test: MTT cytotoxicity assay; settings: MDA-MB-231
Method: By way of example, the in vitro cytotoxicity of the conjugate RuPC1, complex 4 and peptide P2 was determined in four human breast cancer cell lines with different levels of expression of the receptor FGFR, namely MDA-MB-231 (FGFR−), MCF-7 (FGFR−), SK-BR-3 (FGFR+), and MDA-MB-134-VI (FGFR+). The cytotoxicity of RuPC1 was also determined in the stated cell lines at controlled pH 6.8 and 7.4. The cytotoxicity of the complexes 5, 8, 9, and the reference complex (2,2′-bipyridyl)(triphenylphosphane)(f-cyclopentadienyl)ruthenium(II) trifluoromethanesulfonate, [RuCp(PPh3)(bipy)][CF3SO3] (TM34) was only determined in the cell line MDA-MB-231. All the cell lines were from the American Type Culture Collection (ATCC) and were cultured in Dulbecco's Modified Eagle Medium+Glutamax-I (Gibco) supplemented with 10% fetal bovine serum (FBS) and 1% antibiotics, excepting the MDA-MB-134-VI for which it was used the double amount of FBS. The cell cultures were kept in an incubator Heraeus at 37° C. under humidified atmosphere at 5% CO2. The cell viability was evaluated resorting to the MTT ([3-(4,5-dimethylthiazol-2-yl)-2,5-diphenyltetrazolium bromide]) colorimetric assay, which is based on the reduction of the tetrazolium salt to purple formazan by mitochondrial dehydrogenases in metabolically active cells. For the assays, the cells were seeded in 96-well plates (2×10^4 to 3×10^4 cells/200 μL) and allowed to adhere overnight. The compounds were first dissolved in dimethyl sulfoxide to obtain 10 mM stock solutions, further used to prepare the working solutions, at 0.1 to 100 μM, by dilution in the cell culture medium. Alternatively, for the assays at controlled pH 6.8 and 7.4, RuPC1 was first dissolved in a solution of 15% dimethyl sulfoxide/85% phosphate buffer (10 mM in water) to obtain 1.5 mM stock solutions further incubated for 48 hours at both pH values prior to be used to prepare the working solutions, at 0.1 to 50 μM, by dilution in the cell culture medium. In both cases, after continuous exposure of the cells to the compounds for 48 h at 37° C., the medium was removed and the cells were incubated with 200 μL of MTT solution (0.5 mg/mL) for 3 h. Then, the solution was discarded and the purple formazan formed by the viable cells was dissolved in 200 μL of dimethyl sulfoxide. The cell viability (%) was determined relative to the control (cells incubated without compounds) by measuring the absorbance at 570 nm on a PowerWave Xs Bio-Tek Instruments plate spectrophotometer. The respective values of the half maximal inhibitory concentration (IC50) were calculated with the software GraphPad Prism. All the compounds were tested in at least two independent experiments, each comprising six replicates per concentration.

O=C(Cc1ccccc1)C1=C[CH]([Ru-]2([PH](c3ccccc3)(c3ccccc3)c3ccccc3)[n+]3ccccc3-c3cccc[n+]32)C=C1.O=S(=O)([O-])C(F)(F)F (stereo not shown) [compound 9]
Relative variation of the maximum absorbance of the π→π* transitions ([1]; time 0 h): 0.0% | Relative variation of the maximum absorbance of the charge transfer bands ([1]; time 0 h): 0.0% | Relative variation of the maximum absorbance of the π→π* transitions ([1]; time 0.25 h): −0.2% | Relative variation of the maximum absorbance of the charge transfer bands ([1]; time 0.25 h): −0.7% | Relative variation of the maximum absorbance of the π→π* transitions ([1]; time 0.5 h): −0.3% | Relative variation of the maximum absorbance of the charge transfer bands ([1]; time 0.5 h): −0.8% | Relative variation of the maximum absorbance of the π→π* transitions ([1]; time 0.75 h): −0.5% | Relative variation of the maximum absorbance of the charge transfer bands ([1]; time 0.75 h): −0.9% | Relative variation of the maximum absorbance of the π→π* transitions ([1]; time 1 h): −0.3% | Relative variation of the maximum absorbance of the charge transfer bands ([1]; time 1 h): −1.0% | Relative variation of the maximum absorbance of the π→π* transitions ([1]; time 2 h): −0.2% | Relative variation of the maximum absorbance of the charge transfer bands ([1]; time 2 h): −1.2% | Relative variation of the maximum absorbance of the π→π* transitions ([1]; time 3 h): −0.3% | Relative variation of the maximum absorbance of the charge transfer bands ([1]; time 3 h): −1.4% | Relative variation of the maximum absorbance of the π→π* transitions ([1]; time 4 h): −0.4% | Relative variation of the maximum absorbance of the charge transfer bands ([1]; time 4 h): −1.5% | Relative variation of the maximum absorbance of the π→π* transitions ([1]; time 5 h): −0.2% | Relative variation of the maximum absorbance of the charge transfer bands ([1]; time 5 h): −1.6% | Relative variation of the maximum absorbance of the π→π* transitions ([1]; time 6 h): −0.5% | Relative variation of the maximum absorbance of the charge transfer bands ([1]; time 6 h): −1.7% | Relative variation of the maximum absorbance of the π→π* transitions ([1]; time 24 h): 4.5% | Relative variation of the maximum absorbance of the charge transfer bands ([1]; time 24 h): −0.2% | Relative variation of the maximum absorbance of the π→π* transitions ([2]; time 0 h): 0.0% | Relative variation of the maximum absorbance of the charge transfer bands ([2]; time 0 h): 0.0% | Relative variation of the maximum absorbance of the π→π* transitions ([2]; time 0.25 h): 0.0% | Relative variation of the maximum absorbance of the charge transfer bands ([2]; time 0.25 h): 0.2% | Relative variation of the maximum absorbance of the π→π* transitions ([2]; time 0.5 h): −0.2% | Relative variation of the maximum absorbance of the charge transfer bands ([2]; time 0.5 h): 0.2% | Relative variation of the maximum absorbance of the π→π* transitions ([2]; time 0.75 h): −0.3% | Relative variation of the maximum absorbance of the charge transfer bands ([2]; time 0.75 h): 0.2% | Relative variation of the maximum absorbance of the π→π* transitions ([2]; time 1 h): −0.3% | Relative variation of the maximum absorbance of the charge transfer bands ([2]; time 1 h): 0.3% | Relative variation of the maximum absorbance of the π→π* transitions ([2]; time 2 h): −0.3% | Relative variation of the maximum absorbance of the charge transfer bands ([2]; time 2 h): 0.6% | Relative variation of the maximum absorbance of the π→π* transitions ([2]; time 3 h): −0.1% | Relative variation of the maximum absorbance of the charge transfer bands ([2]; time 3 h): 0.9% | Relative variation of the maximum absorbance of the π→π* transitions ([2]; time 4 h): −0.1% | Relative variation of the maximum absorbance of the charge transfer bands ([2]; time 4 h): 0.6% | Relative variation of the maximum absorbance of the π→π* transitions ([2]; time 5 h): −0.3% | Relative variation of the maximum absorbance of the charge transfer bands ([2]; time 5 h): 0.4% | Relative variation of the maximum absorbance of the π→π* transitions ([2]; time 6 h): −0.2% | Relative variation of the maximum absorbance of the charge transfer bands ([2]; time 6 h): 0.7% | Relative variation of the maximum absorbance of the π→π* transitions ([2]; time 24 h): −0.1% | Relative variation of the maximum absorbance of the charge transfer bands ([2]; time 24 h): 0.8% | IC50 range in words (MDA-MB-231 (FGFR−); Example 24): sub-micromolar range | IC50 (MDA-MB-231 (FGFR−); read-out: Cytotoxic activity expressed as IC50, Table 5, 48 h, 37° C.): 310 nM
